Reference: US20030203969A1, “Pharmaceutically active aromatic guanylhydrazones” (priority 2000, published 2003)

What was measured:
HepG2 cells = format: cell-based, human; conditions: Lamivudine-resistant HBV experiment, read-out: TC50 (the source's name)
Procedure: (§1) Human HepG2-2.2.15 cells (ATCC Cat. No. CRL-11997), chronically infected with HBV, are plated in 96-well microtiter plates in DMEM medium supplemented with fetal bovine serum. After incubation at 37° C. in a humidified, 5% CO2 environment for 16-24 hours, the monolayer of HepG2-2.2.15 cells is washed and the medium is replaced with complete medium containing various concentrations of test compound. Every three days during the experiments, the culture medium is replaced with fresh medium containing the appropriately diluted test compound. Six days following the initial administration of the test compound, the cell culture supernatant is collected and clarified by centrifugation. The cell viability is evaluated by a dye uptake procedure (Promega's Cell Titer Aqueous One Solution). Virion-associated HBV DNA present in the tissue culture supernatant is amplified employing PCR technology using primer pairs derived from the HBV strain ayw. Subsequently, the PCR-amplified HBV DNA is detected in real-time by monitoring increases in fluorescence signals that result from exonucleolytic degradation of a quenched fluorescent probe molecule following hybridization of the probe to the amplified HBV DNA (TaqMan; Perkin-Elmer).
The same type of experiments was additionally performed with a mutant, Lamivudine-resistant HBV strain, which was transfected into HepG2 cells.

[1] = system: Lamivudine-resistant, mutant HBV; experiment: Transfected Lamivudine-resistant mutant HBV production in HepG2 cells; format: cell-based, Hepatitis B virus
Procedure: as §1
The same type of experiments was additionally performed with a mutant, Lamivudine-resistant HBV strain, which was transfected into HepG2 cells. […]

P3HR-1 cells = experiment: Compound toxicity in P3HR-1 cells (Cell Titer Aqueous One); format: cell-based, human; conditions: P3HR1 cells; read-out: TC50 (the source's name)
Procedure: Human P3HR-1 cells are latently infected with EBV. Culturing these cells in the presence of phorbol ester induces a lytic infection cycle, resulting in stimulation of viral replication within the cells. Compound efficacy in this assay is determined using TaqMan PCR technology, and compound toxicity is measured by addition of Promega's Cell Titer Aqueous One Solution (metabolic dye).
6. Duplicate plates are set up plating media in place of TPA for evaluation of compound toxicity.
6. Twenty micorliters of Cell Titer Aqueous One Solution (Promega) is added to each well of the toxicity plates. Plates are incubated at 37° C. in a humidified CO2 incubator for 4 hours or until sufficient color development has occurred. Plates are read on a VMax microtiter plate reader at a wavelength of 490/650 nm. Toxicity of the test compound is determined by comparing the optical density of test wells with that of control wells.

[2] = system: NRTI + PI-resistant HIV-1; experiment: Inhibition of multiple anti-retroviral drug resistant HIV-1 strains: NRTI + PI-resistant; format: cell-based
Procedure: (§2) In addition, various different “types” of multiple anti-retroviral drug resistant HIV-1 strains were also tested: […]

NNRTI-resistant HIV-1 = experiment: Inhibition of multiple anti-retroviral drug resistant HIV-1 strains: NNRTI-resistant; format: cell-based
Procedure: as §2

[3] = system: MRC-5 (human embryonic lung fibroblast) cells; experiment: Drug toxicity in MRC-5 cells (CellTiter 96); format: cell-based; conditions: six day incubation, read-out: TC50 (the source's name)
Procedure: Drug toxicity is determined in parallel by seeding MRC-5 cells in 96 well plates and adding drugs to triplicate wells at two dilutions. After a six day incubation period, cell viability is determined using CellTiter 96 Aqueous One Solution (Promega).

E. Coli XL-1 blue strain = experiment: Growth assay for E. coli (optical density at 610 nm); format: cell-based; conditions: LB medium, 37° C., one day; read-out: IC50 (μM) E. coli proliferation
Procedure: We used the E. Coli XL-1 blue strain (Stratagene) for the investigation of antibacterial activity. During this experiments LB medium was used for E. coil growth. LB was prepared as follows: 1% trypton (weight/volume), 0.5% Yeast extract (weight/volume), and 1.5% NaCl (weight/volume) were dissolved in water and autoclaved. The media contained the inhibitor at 100 μM, 10 μM, or 1 μM concentrations, respectively.
The assay was performed as follows: bacteria were seeded to 96-well plates containing the respective inhibitors. The bacteria-containing plates were incubated at 37° C. for one day. After incubation time, E. coli growth was assayed by the measurement of the optical density at 610 nm wavelength.

VZV strain ELLEN = experiment: VZV plaque reduction assay in MRC-5 cells; format: cell-based, Varicella-zoster virus
Procedure: MRC-5 (human embryonic lung fibroblast) cells (ATCC Cat. No. CCL-171) are seeded in 24 well plates using Eagle's Minimum Essential Medium (EMEM) supplemented with 10% heat-inactivated fetal bovine serum (FBS), L-glutamine, sodium pyruvate, non-essential amino acids, penicillin, and streptomycin. The plates are then incubated overnight at 37° C. and 5% CO2. The following day, media is aspirated and approximately 50-100 pfu (plaque forming units) of VZV strain ELLEN is added to the wells of each plate in a volume of 200 μl of assay media (EMEM supplemented with 5% heat-inactivated FBS, L-glutamine, sodium pyruvate, non-essential amino acids, penicillin, and streptomycin). The remaining wells of each plate serve as cellular control wells and receive 200 μl of assay media without virus. The virus is allowed to adsorb onto the cells for 1 hr at 37° C. and 5% CO2. Two dilutions of each test drug are prepared by diluting them in assay media containing 0.5% Methylcellulose. After the incubation period, 1 ml of each drug dilution is added to triplicate wells of a plate. Assay media (without drug) containing 0.5% Methylcellulose is added to the three cell control wells and to three virus control wells on each plate. The plates are incubated for 9-12 days to allow for plaque formation. […]

For `CC(=NNC(=N)N)c1cc(NC(=O)CCCCCCCCC(=O)Nc2cc(C(C)=NNC(=N)N)cc(C(C)=NNC(=N)N)c2)cc(C(C)=NNC(=N)N)c1` [Compound 4, N,N′-bis (3,5-diacetylphenyl) decane diamide tetrakis (amidinohydrazone)], the CC50 (HepG2 cells) was 24.7 µM, the Comments ([1]; Lamivudine-resistant mutant HBV) was “Active” and the IC50 ([1]; Lamivudine-resistant mutant HBV transfected into HepG2 cells, read-out: IC50 (μM) Virion-DNA) was 2.78 µM. For the same compound, the CC50 (P3HR-1 cells) was 21.8 µM, the “[%] inhibition of virus replication” value ([2]; NRTI + PI-resistant HIV-1, 0.5 μM) was 68% and the “[%] inhibition of virus replication” value ([2]; NRTI + PI-resistant HIV-1, 1.0 μM) was 73%. The “[%] inhibition of virus replication” value (NNRTI-resistant HIV-1; NNRTI-resistant HIV-1, 0.5 μM) was 71%, the “[%] inhibition of virus replication” value (NNRTI-resistant HIV-1; NNRTI-resistant HIV-1, 1.0 μM) was 82% and the CC50 [3] was 13.6 µM. For the same compound, the IC50 (E. Coli XL-1 blue strain) was 1 µM, the IC50 (VZV strain ELLEN; MRC-5 cells newly infected with VZV) was 4.69 µM and the Comments (VZV strain ELLEN; VZV, MRC-5 cells) was “Significant activity”.
